Experimental data from patent US6737383B1, “Herbicidal oxadiazolidines” (priority 1999, dated 2004).

How the values were obtained:
rape = assay: Test B pre/postemergence rape; type: in vivo, Brassica napus
In short: (§1)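 Response is a visual 0-to-10 score relative to untreated plants, where 0 means no effect and 10 means complete control, taken twelve to sixteen days after application. Treatments went onto soil at planting and onto foliage of 1- to 4-leaf plants, using a surfactant-containing non-phytotoxic solvent.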

crabgrass = assay: Test B pre/postemergence crabgrass; type: in vivo, Digitaria sanguinalis
In short: as §1

corn = assay: Test B pre/postemergence corn; type: in vivo, Zea mays
In short: as §1

bamyardgrass = assay: Test B flood test barnyardgrass; type: in vivo, Echinochloa crus-galli
In short: (§2)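 Flood test on plants grown to the 2-leaf stage; treated plants kept in greenhouse twelve to sixteen days, then visually rated against controls on a 0 (no effect) to 10 (complete control) scale.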

blackgrass = assay: Test B pre/postemergence blackgrass; type: in vivo, Alopecurus myosuroides
In short: as §1

wheat = assay: Test B pre/postemergence wheat; type: in vivo, Triticum aestivum; conditions: for Plant response rating, Wheat: Rate 250 g/ha
In short: as §1

rice = assay: Test B flood test rice; type: in vivo, Oryza sativa
In short: as §2

bedstraw = assay: Test B pre/postemergence bedstraw; type: in vivo, Galium aparine
In short: as §1

soybean = assay: Test B pre/postemergence soybean; type: in vivo, Glycine max
In short: as §1

wild oat = assay: Test B pre/postemergence wild oat; type: in vivo, Avena fatua; conditions: for Plant response rating, Wild oats: Rate 250 g/ha
In short: as §1

purple nutsedge = assay: Test B pre/postemergence purple nutsedge; type: in vivo, Cyperus rotundus
In short: as §1

duck salad = assay: Test B flood test duck salad; type: in vivo, Heteranthera limosa
In short: as §2

sugar beet = assay: Test B pre/postemergence sugar beet; type: in vivo, Beta vulgaris; conditions: for Plant response rating, Sugarbeets: Rate 250 g/ha
In short: as §1

surinam grass = assay: Test B pre/postemergence surinam grass; type: in vivo, Brachiaria decumbens
In short: as §1

cocklebur = assay: Test B pre/postemergence cocklebur; type: in vivo, Xanthium strumarium
In short: as §1

smallflower flatsedge = assay: Test B flood test smallflower flatsedge; type: in vivo, Cyperus difformis
In short: as §2

velvetleaf = assay: Test B pre/postemergence velvetleaf; type: in vivo, Abutilon theophrasti; conditions: for Plant response rating, Velvetleaf: Rate 250 g/ha
In short: as §1

[1] = Postemergence, Rate 125 g/ha, scale of 0 to 10 where 0 is no effect and 10 is complete control
[2] = Postemergence, Rate 250 g/ha, scale 0 to 10, 0 no effect, 10 complete control
[3] = Preemergence, Rate 62 g/ha, scale 0 to 10 (0 no effect, 10 complete control)
[4] = Preemergence, Rate 125 g/ha, scale 0 to 10 (0 no effect, 10 complete control)
[5] = Preemergence, Rate 250 g/ha, scale of 0 to 10 where 0 is no effect and 10 is complete control
[6] = Preemergence, Rate 500 g/ha, scale 0 (no effect) to 10 (complete control)
[7] = Rate 62 g/ha, Postemergence, scale of 0 to 10 where 0 is no effect and 10 is complete control
[8] = Rate 500 g/ha, Postemergence, scale 0 to 10, 0 no effect, 10 complete control
[9] = Postemergence, Rate 62 g/ha, scale 0 to 10, 0 is no effect, 10 is complete control
[10] = Rate 500 g/ha, listed under Postemergence (flood test species), scale 0 to 10, 0 no effect, 10 complete control
[11] = flood test, listed under Postemergence, Rate 250 g/ha, scale 0 to 10, 0 no effect, 10 complete control
[12] = Preemergence, Rate 125 g/ha, 0 is no effect, 10 is complete control
[13] = Preemergence, scale of 0 to 10 where 0 is no effect and 10 is complete control
[14] = Postemergence, scale 0 to 10, 0 is no effect, 10 is complete control
[15] = Postemergence (flood test species), Rate 125 g/ha, scale of 0 to 10 where 0 is no effect and 10 is complete control
[16] = Rate 62 g/ha, Postemergence section, flood test species, scale of 0 to 10 where 0 is no effect and 10 is complete control
[17] = Rate 250 g/ha, Postemergence (flood test), scale 0 to 10, 0 is no effect, 10 is complete control

Q: With CCc1noc(C)c1-n1c(=O)on(C(=O)N(c2ccc(F)cc2)C(C)C)c1=O [Compound 101] as the compound, how does the “Rape plant response rating” value (rape; [1]) read?
A: 0

Q: What about the “Rape plant response rating” value (rape; [2]) of the same compound?
A: 0

Q: And the “Rape plant response rating” value (rape; [3])?
A: 0

Q: What about the “Plant response rating, Rape” value (rape; [4]) of the same compound?
A: 0

Q: And the “Plant response rating, Rape” value (rape; [5])?
A: 0

Q: What about the “Rape plant response rating” value (rape; [6]) of the same compound?
A: 0

Q: And the “Rape plant response rating” value (rape; [7])?
A: 0

Q: What about the “Rape plant response rating” value (rape; [8]) of the same compound?
A: 0

Q: What about the “Crabgrass plant response rating” value (crabgrass; [1]) of the same compound?
A: 0

Q: What about the “Crabgrass plant response rating” value (crabgrass; [2]) of the same compound?
A: 0

Q: And the “Crabgrass plant response rating” value (crabgrass; [3])?
A: 0

Q: And the “Plant response rating, Crabgrass” value (crabgrass; [4])?
A: 0

Q: What about the “Plant response rating, Crabgrass” value (crabgrass; [5]) of the same compound?
A: 0

Q: And the “Crabgrass plant response rating” value (crabgrass; [6])?
A: 0

Q: And the “Crabgrass plant response rating” value (crabgrass; [7])?
A: 0

Q: What about the “Crabgrass plant response rating” value (crabgrass; [8]) of the same compound?
A: 0

Q: What about the “Corn plant response rating” value (corn; [1]) of the same compound?
A: 0

Q: And the “Corn plant response rating” value (corn; [2])?
A: 0

Q: And the “Corn plant response rating” value (corn; [3])?
A: 0

Q: And the “Plant response rating, Corn” value (corn; [4])?
A: 0

Q: And the “Plant response rating, Corn” value (corn; [5])?
A: 0

Q: What about the “Corn plant response rating” value (corn; [6]) of the same compound?
A: 0

Q: And the “Corn plant response rating” value (corn; [7])?
A: 0

Q: And the “Corn plant response rating” value (corn; [8])?
A: 0

Q: What about the “Barnyardgrass plant response rating” value (bamyardgrass; [9]) of the same compound?
A: 0

Q: And the “Barnyardgrass plant response rating” value (bamyardgrass; Rate 125 g/ha, Postemergence section (flood test species), scale 0 to 10, 0 no effect, 10 complete control)?
A: 0

Q: And the “Barnyardgrass plant response rating” value (bamyardgrass; [10])?
A: 0

Q: And the “Barnyardgrass plant response rating” value (bamyardgrass; [11])?
A: 0

Q: And the “Blackgrass plant response rating” value (blackgrass; [1])?
A: 0

Q: And the “Blackgrass plant response rating” value (blackgrass; [2])?
A: 0

Q: And the “Blackgrass plant response rating” value (blackgrass; [3])?
A: 0

Q: And the “Plant response rating, Blackgrass” value (blackgrass; [4])?
A: 0

Q: And the “Plant response rating, Blackgrass” value (blackgrass; [5])?
A: 0

Q: What about the “Blackgrass plant response rating” value (blackgrass; [6]) of the same compound?
A: 0

Q: And the “Blackgrass plant response rating” value (blackgrass; [7])?
A: 0

Q: What about the “Blackgrass plant response rating” value (blackgrass; [8]) of the same compound?
A: 0

Q: What about the “Wheat plant response rating” value (wheat; [1]) of the same compound?
A: 0

Q: What about the “Wheat plant response rating” value (wheat; [3]) of the same compound?
A: 0

Q: And the “Wheat plant response rating (0 to 10 scale)” value (wheat; [12])?
A: 0

Q: What about the “Plant response rating, Wheat” value (wheat; [13]) of the same compound?
A: 0

Q: And the “Wheat plant response rating” value (wheat; [6])?
A: 0

Q: What about the “Wheat plant response rating” value (wheat; [7]) of the same compound?
A: 0

Q: What about the “Plant response rating, Wheat” value (wheat; [14]) of the same compound?
A: 0

Q: And the “Wheat plant response rating” value (wheat; [8])?
A: 0

Q: What about the “Rice plant response rating” value (rice; [15]) of the same compound?
A: 0

Q: And the “Rice plant response rating” value (rice; [16])?
A: 0

Q: What about the “Plant response rating, Rice” value (rice; [17]) of the same compound?
A: 0

Q: And the “Rice plant response rating” value (rice; [10])?
A: 0

Q: What about the “Bedstraw plant response rating” value (bedstraw; [3]) of the same compound?
A: 0

Q: What about the “Plant response rating, Bedstraw” value (bedstraw; [4]) of the same compound?
A: 0

Q: And the “Plant response rating, Bedstraw” value (bedstraw; [5])?
A: 0

Q: What about the “Bedstraw plant response rating” value (bedstraw; [6]) of the same compound?
A: 0

Q: And the “Bedstraw plant response rating” value (bedstraw; [8])?
A: 0

Q: What about the “Soybean plant response rating” value (soybean; [1]) of the same compound?
A: 2

Q: And the “Soybean plant response rating” value (soybean; [3])?
A: 0

Q: What about the “Plant response rating, Soybean” value (soybean; [4]) of the same compound?
A: 0

Q: What about the “Plant response rating, Soybean” value (soybean; [5]) of the same compound?
A: 0

Q: What about the “Soybean plant response rating” value (soybean; [6]) of the same compound?
A: 0

Q: And the “Soybean plant response rating” value (soybean; [7])?
A: 2

Q: What about the “Plant response rating, Soybean” value (soybean; Rate 250 g/ha, Postemergence, scale 0 to 10, 0 is no effect, 10 is complete control) of the same compound?
A: 3

Q: And the “Soybean plant response rating” value (soybean; [8])?
A: 3

Q: What about the “Wild oats plant response rating” value (wild oat; [1]) of the same compound?
A: 0

Q: And the “Wild oats plant response rating” value (wild oat; [3])?
A: 0

Q: What about the “Wild oats plant response rating (0 to 10 scale)” value (wild oat; [12]) of the same compound?
A: 0

Q: What about the “Plant response rating, Wild oats” value (wild oat; [13]) of the same compound?
A: 0

Q: What about the “Wild oats plant response rating” value (wild oat; [6]) of the same compound?
A: 0

Q: And the “Wild oats plant response rating” value (wild oat; [7])?
A: 0

Q: And the “Plant response rating, Wild oats” value (wild oat; [14])?
A: 0

Q: What about the “Wild oats plant response rating” value (wild oat; [8]) of the same compound?
A: 0

Q: And the “Nutsedge plant response rating” value (purple nutsedge; [1])?
A: 0

Q: What about the “Nutsedge plant response rating” value (purple nutsedge; [2]) of the same compound?
A: 0

Q: And the “Nutsedge plant response rating” value (purple nutsedge; [3])?
A: 0

Q: What about the “Plant response rating, Nutsedge” value (purple nutsedge; [4]) of the same compound?
A: 0

Q: What about the “Plant response rating, Nutsedge” value (purple nutsedge; [5]) of the same compound?
A: 0

Q: And the “Nutsedge plant response rating” value (purple nutsedge; [6])?
A: 0

Q: What about the “Nutsedge plant response rating” value (purple nutsedge; [7]) of the same compound?
A: 0

Q: And the “Nutsedge plant response rating” value (purple nutsedge; [8])?
A: 0

Q: What about the “Ducksalad plant response rating” value (duck salad; [15]) of the same compound?
A: 0

Q: And the “Ducksalad plant response rating” value (duck salad; [16])?
A: 0

Q: What about the “Ducksalad plant response rating” value (duck salad; [10]) of the same compound?
A: 0

Q: What about the “Ducksalad plant response rating” value (duck salad; [11]) of the same compound?
A: 0

Q: And the “Sugarbeets plant response rating” value (sugar beet; [1])?
A: 0

Q: And the “Sugarbeets plant response rating” value (sugar beet; [3])?
A: 0

Q: And the “Sugarbeets plant response rating (0 to 10 scale)” value (sugar beet; [12])?
A: 0

Q: What about the “Plant response rating, Sugarbeets” value (sugar beet; [13]) of the same compound?
A: 0

Q: And the “Sugarbeets plant response rating” value (sugar beet; [6])?
A: 0

Q: And the “Sugarbeets plant response rating” value (sugar beet; [7])?
A: 0

Q: And the “Plant response rating, Sugarbeets” value (sugar beet; [14])?
A: 0

Q: And the “Sugarbeets plant response rating” value (sugar beet; [8])?
A: 0

Q: And the “B. signalgrass plant response rating” value (surinam grass; [9])?
A: 0

Q: What about the “B. signalgrass plant response rating” value (surinam grass; [2]) of the same compound?
A: 0

Q: What about the “B. signalgrass plant response rating” value (surinam grass; [3]) of the same compound?
A: 0

Q: And the “Plant response rating, B. signalgrass” value (surinam grass; [4])?
A: 0

Q: And the “Plant response rating, B. signalgrass” value (surinam grass; [5])?
A: 0

Q: And the “B. signalgrass plant response rating” value (surinam grass; [6])?
A: 0

Q: And the “B. signalgrass plant response rating” value (surinam grass; Rate 125 g/ha, Postemergence, scale 0 to 10, 0 no effect, 10 complete control)?
A: 0

Q: What about the “B. signalgrass plant response rating” value (surinam grass; Rate 500 g/ha, Postemergence, scale of 0 to 10 where 0 is no effect and 10 is complete control) of the same compound?
A: 0

Q: What about the “Cocklebur plant response rating” value (cocklebur; [1]) of the same compound?
A: 0

Q: What about the “Cocklebur plant response rating” value (cocklebur; [2]) of the same compound?
A: 0

Q: What about the “Cocklebur plant response rating” value (cocklebur; [3]) of the same compound?
A: 0

Q: What about the “Plant response rating, Cocklebur” value (cocklebur; [4]) of the same compound?
A: 0

Q: And the “Plant response rating, Cocklebur” value (cocklebur; [5])?
A: 0

Q: And the “Cocklebur plant response rating” value (cocklebur; [7])?
A: 0

Q: What about the “Cocklebur plant response rating” value (cocklebur; [8]) of the same compound?
A: 0

Q: What about the “S. Flatsedge plant response rating” value (smallflower flatsedge; [15]) of the same compound?
A: 0

Q: And the “S. Flatsedge plant response rating” value (smallflower flatsedge; [16])?
A: 0

Q: What about the “Plant response rating, S. Flatsedge” value (smallflower flatsedge; [17]) of the same compound?
A: 0

Q: And the “S. Flatsedge plant response rating” value (smallflower flatsedge; [10])?
A: 0

Q: And the “Velvetleaf plant response rating” value (velvetleaf; [1])?
A: 0

Q: What about the “Velvetleaf plant response rating” value (velvetleaf; [3]) of the same compound?
A: 0

Q: And the “Velvetleaf plant response rating (0 to 10 scale)” value (velvetleaf; [12])?
A: 0

Q: And the “Plant response rating, Velvetleaf” value (velvetleaf; [13])?
A: 0

Q: What about the “Velvetleaf plant response rating” value (velvetleaf; [6]) of the same compound?
A: 0

Q: And the “Velvetleaf plant response rating” value (velvetleaf; [7])?
A: 0

Q: And the “Plant response rating, Velvetleaf” value (velvetleaf; [14])?
A: 0

Q: What about the “Velvetleaf plant response rating” value (velvetleaf; [8]) of the same compound?
A: 0
